Experimental data as given in patent US11040035B2, “3-oxo-2,6-diphenyl-2,3-dihydropyridazine-4-carboxamides” (BAYER PHARMA AKTIENGESELLSCHAFT, priority 2016, dated 2021).

Key:
AHR [1] = target: T1, AHR (Homo sapiens, UniProt P35869); assay: In vitro assay 2: agonism in human cell line (transactivation assay); details: Assay 2: AHR-luc Hum Agonism IC50 [M], no kynurenic acid, 20 hours, firefly luciferase
T1 sequence (P35869 11-848): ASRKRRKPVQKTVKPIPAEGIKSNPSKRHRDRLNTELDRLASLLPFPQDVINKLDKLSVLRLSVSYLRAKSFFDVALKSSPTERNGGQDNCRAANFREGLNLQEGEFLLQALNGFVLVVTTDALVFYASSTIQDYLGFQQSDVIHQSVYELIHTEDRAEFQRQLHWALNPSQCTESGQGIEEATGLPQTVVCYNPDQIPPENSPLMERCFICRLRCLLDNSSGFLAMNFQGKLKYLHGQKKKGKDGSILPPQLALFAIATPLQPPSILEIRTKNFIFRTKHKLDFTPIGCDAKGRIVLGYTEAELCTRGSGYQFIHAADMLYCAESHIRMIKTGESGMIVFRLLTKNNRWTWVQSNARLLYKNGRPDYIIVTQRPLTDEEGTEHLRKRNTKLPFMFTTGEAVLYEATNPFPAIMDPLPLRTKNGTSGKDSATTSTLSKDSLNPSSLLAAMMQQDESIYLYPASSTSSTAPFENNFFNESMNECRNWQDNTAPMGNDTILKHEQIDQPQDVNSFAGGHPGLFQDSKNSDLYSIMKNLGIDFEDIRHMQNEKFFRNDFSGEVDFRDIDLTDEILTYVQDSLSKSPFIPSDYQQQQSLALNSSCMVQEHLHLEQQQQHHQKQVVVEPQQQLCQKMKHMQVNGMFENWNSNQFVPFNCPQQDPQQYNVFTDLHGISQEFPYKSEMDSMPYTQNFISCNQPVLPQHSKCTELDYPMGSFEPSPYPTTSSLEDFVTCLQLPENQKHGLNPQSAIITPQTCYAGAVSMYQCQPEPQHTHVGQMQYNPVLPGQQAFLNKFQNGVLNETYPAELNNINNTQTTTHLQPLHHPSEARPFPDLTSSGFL

AHR [2] = target: T1, AHR; assay: In vitro assay 1: antagonism in human cell line (transactivation assay, kynurenic acid prestimulated); details: Assay 1: AHR-luc Hum Antagonism IC50 [M], 150 μM kynurenic acid, 20 hours, firefly luciferase

An IC50 (AHR [1]) of over 2e-05 M and an IC50 (AHR [2]) of 1.04e-07 M were found for `O=C(NCC1(O)CC1)c1cc(-c2ccc(Cl)cc2)nn(-c2cccc(F)c2)c1=O` [Example 196, 6-(4-Chlorophenyl)-2-(3-fluorophenyl)-N-[(1-hydroxycyclopropyl)methyl]-3-oxo-2,3-dihydropyridazine-4-carboxamide] in this work.
An IC50 (AHR [1]) of over 2e-05 M and an IC50 (AHR [2]) of 3.85e-07 M were found for `C[C@@H](O)CCNC(=O)c1cc(-c2ccc(Cl)cc2)nn(-c2cccc(F)c2)c1=O` [Example 204, (−)-6-(4-Chlorophenyl)-2-(3-fluorophenyl)-N-[(3R)-3-hydroxybutyl]-3-oxo-2,3-dihydropyridazine-4-carboxamide] in this work.
An IC50 (AHR [1]) of over 2e-05 M and an IC50 (AHR [2]) of 2.12e-07 M were found for `C[C@H](O)CCNC(=O)c1cc(-c2ccc(Cl)cc2)nn(-c2cccc(F)c2)c1=O` [Example 205, (+)-6-(4-Chlorophenyl)-2-(3-fluorophenyl)-N-[(3S)-3-hydroxybutyl]-3-oxo-2,3-dihydropyridazine-4-carboxamide] in this work.
An IC50 (AHR [1]) of over 2e-05 M and an IC50 (AHR [2]) of 8.32e-08 M were found for `O=C(NC1(CO)CCCC1)c1cc(-c2ccc(Cl)cc2)nn(-c2cccc(F)c2)c1=O` [Example 214, 6-(4-Chlorophenyl)-2-(3-fluorophenyl)-N-[1-(hydroxymethyl)cyclopentyl]-3-oxo-2,3-dihydropyridazine-4-carboxamide] in this work.
An IC50 (AHR [1]) of over 2e-05 M and an IC50 (AHR [2]) of 1.66e-07 M were found for `O=C(NC1(CO)CCCCC1)c1cc(-c2ccc(Cl)cc2)nn(-c2cccc(F)c2)c1=O` [Example 215, 6-(4-Chlorophenyl)-2-(3-fluorophenyl)-N-[1-(hydroxymethyl)cyclohexyl]-3-oxo-2,3-dihydropyridazine-4-carboxamide] in this work.
An IC50 (AHR [1]) of over 2e-05 M and an IC50 (AHR [2]) of 3.38e-06 M were found for `O=C(N[C@@H](CO)Cc1ccccc1)c1cc(-c2ccc(Cl)cc2)nn(-c2cccc(F)c2)c1=O` [Example 219, (+)-6-(4-Chlorophenyl)-2-(3-fluorophenyl)-N-[(2R)-1-hydroxy-3-phenylpropan-2-yl]-3-oxo-2,3-dihydropyridazine-4-carboxamide] in this work.
An IC50 (AHR [1]) of over 2e-05 M and an IC50 (AHR [2]) of 3.35e-07 M were found for `O=C(NC(CO)CO)c1cc(-c2ccc(Cl)cc2)nn(-c2cccc(F)c2)c1=O` [Example 228, 6-(4-Chlorophenyl)-N-(1,3-dihydroxypropan-2-yl)-2-(3-fluorophenyl)-3-oxo-2,3-dihydropyridazine-4-carboxamide] in this work.
An IC50 (AHR [1]) of over 2e-05 M and an IC50 (AHR [2]) of 1.56e-06 M were found for `CN1CCC(O)(CNC(=O)c2cc(-c3ccc(Cl)cc3)nn(-c3cccc(F)c3)c2=O)CC1` [Example 234, 6-(4-Chlorophenyl)-2-(3-fluorophenyl)-N-[(4-hydroxy-1-methylpiperidin-4-yl)methyl]-3-oxo-2,3-dihydropyridazine-4-carboxamide] in this work.
An IC50 (AHR [1]) of over 2e-05 M and an IC50 (AHR [2]) of 9.88e-08 M were found for `C[C@H](CO)NC(=O)c1cc(-c2ccc(C(F)(F)F)cc2)nn(-c2cccc(F)c2)c1=O` [Example 238, 2-(3-Fluorophenyl)-N-[(2R)-1-hydroxypropan-2-yl]-3-oxo-6-[4-(trifluoromethyl)phenyl]-2,3-dihydropryridazine-4-carboxamide] in this work.
An IC50 (AHR [1]) of over 2e-05 M and an IC50 (AHR [2]) of 6.43e-06 M were found for `O=C(N[C@@H](CO)Cc1ccccc1)c1cc(-c2ccc(C(F)(F)F)cc2)nn(-c2cccc(F)c2)c1=O` [Example 252, 2-(3-Fluorophenyl)-N-[(2R)-1-hydroxy-3-phenylpropan-2-yl]-3-oxo-6-[4-(trifluoromethyl)phenyl]-2,3-dihydropyridazine-4-carboxamide] in this work.
An IC50 (AHR [1]) of over 2e-05 M and an IC50 (AHR [2]) of 4.31e-08 M were found for `O=C(N[C@H]1COCC[C@H]1O)c1cc(-c2ccc(Cl)cc2)nn(-c2cccc(F)c2)c1=O` [Example 273, 1,5-Anhydro-2-({[6-(4-chlorophenyl)-2-(3-fluorophenyl)-3-oxo-2,3-dihydropyridazin-4-yl]carbonyl}amino)-2,4-dideoxy-D-erythro-pentitol] in this work.
An IC50 (AHR [1]) of over 2e-05 M and an IC50 (AHR [2]) of 1.92e-08 M were found for `O=C(NC(CO)(CO)C(F)(F)F)c1cc(-c2ccc(Cl)cc2)nn(-c2cccc(F)c2)c1=O` [Example 280, 6-(4-Chlorophenyl)-2-(3-fluorophenyl)-3-oxo-N-[1,1,1-trifluoro-3-hydroxy-2-(hydroxymethyl)propan-2-yl]-2,3-dihydropyridazine-4-carboxamide] in this work.
An IC50 (AHR [1]) of over 2e-05 M and an IC50 (AHR [2]) of 1.81e-07 M were found for `O=C(NCC(O)C(F)(F)F)c1cc(-c2ccc(Cl)c(F)c2)nn(-c2cccc(F)c2)c1=O` (stereo not drawn) [Example 282, 6-(4-chloro-3-fluorophenyl)-2-(3-fluorophenyl)-3-oxo-N-(3,3,3-trifluoro-2-hydroxypropyl)-2,3-dihydropyridazine-4-carboxamide] in this work.
An IC50 (AHR [1]) of over 2e-05 M and an IC50 (AHR [2]) of 9.39e-08 M were found for `CC(C)[C@@H](CO)NC(=O)c1cc(-c2ccc(Cl)c(F)c2)nn(-c2cccc(F)c2)c1=O` [Example 285, 6-(4-Chloro-3-fluorophenyl)-2-(3-fluorophenyl)-N-[(2S)-1-hydroxy-3-methylbutan-2-yl]-3-oxo-2,3-dihydropyridazine-4-carboxamide] in this work.
An IC50 (AHR [1]) of over 2e-05 M and an IC50 (AHR [2]) of 2.77e-07 M were found for `C[C@@H](CO)NC(=O)c1cc(-c2ccc(Cl)c(F)c2)nn(-c2cccc(F)c2)c1=O` [Example 286, 6-(4-Chloro-3-fluorophenyl)-2-(3-fluorophenyl)-N-[(2S)-1-hydroxypropan-2-yl]-3-oxo-2,3-dihydropyridazine-4-carboxamide] in this work.
An IC50 (AHR [1]) of over 2e-05 M and an IC50 (AHR [2]) of 1.29e-07 M were found for `O=C(NC(CO)C1CCOC1)c1cc(-c2ccc(Cl)c(F)c2)nn(-c2cccc(F)c2)c1=O` (stereo not drawn) [Example 287, 6-(4-Chloro-3-fluorophenyl)-2-(3-fluorophenyl)-N-[2-hydroxy-1-[-tetrahydrofuran-3-yl]ethyl]-3-oxo-2,3-dihydropyridazine-4-carboxamide] in this work.
An IC50 (AHR [1]) of over 2e-05 M and an IC50 (AHR [2]) of 1.44e-07 M were found for `CC(O)C(C)NC(=O)c1cc(-c2ccc(Cl)c(F)c2)nn(-c2cccc(F)c2)c1=O` (stereo not drawn) [Example 289, 6-(4-Chloro-3-fluorophenyl)-2-(3-fluorophenyl)-N-(3-hydroxybutan-2-yl)-3-oxo-2,3-dihydropyridazine-4-carboxamide] in this work.
An IC50 (AHR [1]) of over 2e-05 M and an IC50 (AHR [2]) of 8.72e-08 M were found for `COc1ccc(-c2cc(C(=O)N[C@@H](C)CO)c(=O)n(-c3cccc(F)c3)n2)cc1` [Example 297, 2-(3-Fluorophenyl)-N-[(2S)-1-hydroxypropan-2-yl]-6-(4-methoxyphenyl)-3-oxo-2,3-dihydropyridazine-4-carboxamide] in this work.
An IC50 (AHR [1]) of over 2e-05 M and an IC50 (AHR [2]) of 3.18e-08 M were found for `CC[C@@H](CO)NC(=O)c1cc(-c2ccc(OC)cc2)nn(-c2cccc(F)c2)c1=O` [Example 298, 2-(3-Fluorophenyl)-N-[(2S)-1-hydroxybutan-2-yl]-6-(4-methoxyphenyl)-3-oxo-2,3-dihydropyridazine-4-carboxamide] in this work.
An IC50 (AHR [1]) of over 2e-05 M and an IC50 (AHR [2]) of 2.29e-07 M were found for `O=C(NCC(O)C(F)(F)F)c1cc(-c2ccc(Cl)c(Cl)c2)nn(-c2cccc(F)c2)c1=O` (stereo not drawn) [Example 302, 6-(3,4-Dichlorophenyl)-2-(3-fluorophenyl)-3-oxo-N-(3,3,3-trifluoro-2-hydroxypropyl)-2,3-dihydropyridazine-4-carboxamide] in this work.
An IC50 (AHR [1]) of over 2e-05 M and an IC50 (AHR [2]) of 8.73e-07 M were found for `COCC(O)CNC(=O)c1cc(-c2ccc(Cl)c(Cl)c2)nn(-c2cccc(F)c2)c1=O` (stereo not drawn) [Example 303, 6-(3,4-Dichlorophenyl)-2-(3-fluorophenyl)-N-(2-hydroxy-3-methoxypropyl)-3-oxo-2,3-dihydropyridazine-4-carboxamide] in this work.
